Test results reported in the supplement of paper PMC10627819.

Key:
Experiment in all cases: fitness (endpoint OD595 vs no drug) (fraction); higher = more growth
S. aureus DSM 20231 = system: S. aureus DSM 20231
Outline: (§1)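 In 384-well plates at 37 °C, cultures began at OD595 0.01 in 30 µl, with 55 µl used for S. pneumoniae. OD595 readings every 30 min for 14 h were corrected by the first reading. Fitness divides the stationary-phase transition optical density by the robust mean of no-drug control wells. The result is capped at 1.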

S. aureus Newman = system: S. aureus Newman
Outline: as §1

S. pneumoniae D39V = system: S. pneumoniae D39V
Outline: as §1

B. subtilis 168 = system: B. subtilis 168
Outline: as §1

[1] = first compound 0.078 µg/mL, partner 0.0156 µg/mL
[2] = first compound 0.078 µg/mL, partner 0.0312 µg/mL
[3] = first compound 0.078 µg/mL, partner 0.0625 µg/mL
[4] = first compound 0.156 µg/mL, partner 0.0156 µg/mL
[5] = first compound 0.156 µg/mL, partner 0.0312 µg/mL
[6] = first compound 0.156 µg/mL, partner 0.0625 µg/mL
[7] = first compound 0.312 µg/mL, partner 0.0156 µg/mL
[8] = first compound 0.312 µg/mL, partner 0.0312 µg/mL
[9] = first compound 0.312 µg/mL, partner 0.0625 µg/mL
[10] = first compound 0.781 µg/mL, partner 0.0156 µg/mL
[11] = first compound 0.781 µg/mL, partner 0.0312 µg/mL
[12] = first compound 0.781 µg/mL, partner 0.0625 µg/mL
[13] = first compound 1.562 µg/mL, partner 0.0156 µg/mL
[14] = first compound 1.562 µg/mL, partner 0.0312 µg/mL
[15] = first compound 1.562 µg/mL, partner 0.0625 µg/mL
[16] = first compound 3.124 µg/mL, partner 0.0156 µg/mL
[17] = first compound 3.124 µg/mL, partner 0.0312 µg/mL
[18] = first compound 3.124 µg/mL, partner 0.0625 µg/mL
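Further: OD595 on entry to stationary phase over no-drug wells; at most 1.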

CO/N=C(\C(=O)N[C@@H]1C(=O)N2C(C(=O)O)=C(COC(C)=O)CS[C@H]12)c1csc(N)n1 [Cefotaxime] + CO[C@@]12[C@H](COC(N)=O)C3=C(C(=O)C(C)=C(N)C3=O)N1C[C@@H]1N[C@@H]12 [Mitomycin C]
fitness (S. aureus DSM 20231; first compound 0.039 µg/mL, partner 0.0156 µg/mL): 0.581
fitness (S. aureus DSM 20231; first compound 0.039 µg/mL, partner 0.0312 µg/mL): 0.532
fitness (S. aureus DSM 20231; first compound 0.039 µg/mL, partner 0.0625 µg/mL): 0.607
fitness (S. aureus DSM 20231; [1]): 0.581
fitness (S. aureus DSM 20231; [2]): 0.577
fitness (S. aureus DSM 20231; [3]): 0.537
fitness (S. aureus DSM 20231; [4]): 0.538
fitness (S. aureus DSM 20231; [5]): 0.562
fitness (S. aureus DSM 20231; [6]): 0.54
fitness (S. aureus DSM 20231; [7]): 0.483
fitness (S. aureus DSM 20231; [8]): 0.495
fitness (S. aureus DSM 20231; [9]): 0.457
fitness (S. aureus Newman; [1]): 0.577
fitness (S. aureus Newman; [2]): 0.574
fitness (S. aureus Newman; [3]): 0.422
fitness (S. aureus Newman; [4]): 0.48
fitness (S. aureus Newman; [5]): 0.414
fitness (S. aureus Newman; [6]): 0.234
fitness (S. aureus Newman; [7]): 0.313
fitness (S. aureus Newman; [8]): 0.22
fitness (S. aureus Newman; [9]): 0.138
fitness (S. aureus Newman; first compound 0.625 µg/mL, partner 0.0156 µg/mL, one replicate): 0.0313
fitness (S. aureus Newman; first compound 0.625 µg/mL, partner 0.0312 µg/mL, one replicate): 0.025
fitness (S. aureus Newman; first compound 0.625 µg/mL, partner 0.0625 µg/mL, one replicate): 0.0258
fitness (S. aureus Newman; first compound 1.25 µg/mL, partner 0.0156 µg/mL, one replicate): 0.0209
fitness (S. aureus Newman; first compound 1.25 µg/mL, partner 0.0312 µg/mL, one replicate): 0.0017
fitness (S. aureus Newman; first compound 1.25 µg/mL, partner 0.0625 µg/mL, one replicate): 0
fitness (S. aureus Newman; first compound 2.5 µg/mL, partner 0.0156 µg/mL, one replicate): 0.0581
fitness (S. aureus Newman; first compound 2.5 µg/mL, partner 0.0312 µg/mL, one replicate): 0.0229
fitness (S. aureus Newman; first compound 2.5 µg/mL, partner 0.0625 µg/mL, one replicate): 0.0272
fitness (S. pneumoniae D39V; first compound 0.0018 µg/mL, partner 0.001075 µg/mL): 0.978
fitness (S. pneumoniae D39V; first compound 0.0018 µg/mL, partner 0.002 µg/mL): 0.789
fitness (S. pneumoniae D39V; first compound 0.0018 µg/mL, partner 0.00215 µg/mL): 0.949
fitness (S. pneumoniae D39V; first compound 0.0018 µg/mL, partner 0.004 µg/mL): 0.81
fitness (S. pneumoniae D39V; first compound 0.0018 µg/mL, partner 0.0043 µg/mL): 0.863
fitness (S. pneumoniae D39V; first compound 0.0018 µg/mL, partner 0.008 µg/mL): 0.702
fitness (S. pneumoniae D39V; first compound 0.0035 µg/mL, partner 0.001075 µg/mL): 0.976
fitness (S. pneumoniae D39V; first compound 0.0035 µg/mL, partner 0.002 µg/mL): 0.781
fitness (S. pneumoniae D39V; first compound 0.0035 µg/mL, partner 0.00215 µg/mL): 0.922
fitness (S. pneumoniae D39V; first compound 0.0035 µg/mL, partner 0.004 µg/mL): 0.767
fitness (S. pneumoniae D39V; first compound 0.0035 µg/mL, partner 0.0043 µg/mL): 0.838
fitness (S. pneumoniae D39V; first compound 0.0035 µg/mL, partner 0.008 µg/mL): 0.647
fitness (S. pneumoniae D39V; first compound 0.007 µg/mL, partner 0.001075 µg/mL): 0.895
fitness (S. pneumoniae D39V; first compound 0.007 µg/mL, partner 0.002 µg/mL): 0.694
fitness (S. pneumoniae D39V; first compound 0.007 µg/mL, partner 0.00215 µg/mL): 0.834
fitness (S. pneumoniae D39V; first compound 0.007 µg/mL, partner 0.004 µg/mL): 0.679
fitness (S. pneumoniae D39V; first compound 0.007 µg/mL, partner 0.0043 µg/mL): 0.802
fitness (S. pneumoniae D39V; first compound 0.007 µg/mL, partner 0.008 µg/mL): 0.637

CN(C)[C@@H]1C(O)=C(C(N)=O)C(=O)[C@@]2(O)C(O)=C3C(=O)c4c(O)ccc(Cl)c4[C@@](C)(O)[C@H]3C[C@@H]12 [Chlortetracycline] + Cc1ncc([N+](=O)[O-])n1CCO [Metronidazole]
fitness (B. subtilis 168; first compound 0.0475 µg/mL, partner 0.625 µg/mL): 0.978
fitness (B. subtilis 168; first compound 0.0475 µg/mL, partner 1.25 µg/mL): 0.925
fitness (B. subtilis 168; first compound 0.0475 µg/mL, partner 2.5 µg/mL): 0.959
fitness (B. subtilis 168; first compound 0.095 µg/mL, partner 0.625 µg/mL): 0.888
fitness (B. subtilis 168; first compound 0.095 µg/mL, partner 1.25 µg/mL): 0.789
fitness (B. subtilis 168; first compound 0.095 µg/mL, partner 2.5 µg/mL): 0.822
fitness (B. subtilis 168; first compound 0.19 µg/mL, partner 0.625 µg/mL): 0.619
fitness (B. subtilis 168; first compound 0.19 µg/mL, partner 1.25 µg/mL): 0.586
fitness (B. subtilis 168; first compound 0.19 µg/mL, partner 2.5 µg/mL): 0.536
fitness (S. aureus DSM 20231; first compound 0.006 µg/mL, partner 0.625 µg/mL, one replicate): 0.807
fitness (S. aureus DSM 20231; first compound 0.006 µg/mL, partner 1.25 µg/mL, one replicate): 0.8
fitness (S. aureus DSM 20231; first compound 0.006 µg/mL, partner 2.5 µg/mL, one replicate): 0.833
fitness (S. aureus DSM 20231; first compound 0.048 µg/mL, partner 0.625 µg/mL): 0.196
fitness (S. aureus DSM 20231; first compound 0.048 µg/mL, partner 1.25 µg/mL): 0.144
fitness (S. aureus DSM 20231; first compound 0.048 µg/mL, partner 2.5 µg/mL): 0.124
fitness (S. pneumoniae D39V; first compound 0.012 µg/mL, partner 1.073 µg/mL): 0.958
fitness (S. pneumoniae D39V; first compound 0.012 µg/mL, partner 4.29 µg/mL): 0.904
fitness (S. pneumoniae D39V; first compound 0.024 µg/mL, partner 1.073 µg/mL): 0.972
fitness (S. pneumoniae D39V; first compound 0.024 µg/mL, partner 4.29 µg/mL): 0.916
fitness (S. pneumoniae D39V; first compound 0.048 µg/mL, partner 1.073 µg/mL): 0.855
fitness (S. pneumoniae D39V; first compound 0.048 µg/mL, partner 2.145 µg/mL): 0.873
fitness (S. pneumoniae D39V; first compound 0.048 µg/mL, partner 4.29 µg/mL): 0.872
fitness (S. pneumoniae D39V; first compound 0.375 µg/mL, partner 1.25 µg/mL): 0.0344
fitness (S. pneumoniae D39V; first compound 0.375 µg/mL, partner 2.5 µg/mL): 0.0383
fitness (S. pneumoniae D39V; first compound 0.375 µg/mL, partner 5 µg/mL): 0.0668
fitness (S. pneumoniae D39V; first compound 0.75 µg/mL, partner 1.25 µg/mL): 0.0404
fitness (S. pneumoniae D39V; first compound 0.75 µg/mL, partner 2.5 µg/mL): 0.045
fitness (S. pneumoniae D39V; first compound 0.75 µg/mL, partner 5 µg/mL): 0.0953
fitness (S. pneumoniae D39V; first compound 1.5 µg/mL, partner 1.25 µg/mL): 0.0574
fitness (S. pneumoniae D39V; first compound 1.5 µg/mL, partner 2.5 µg/mL): 0.0668
fitness (S. pneumoniae D39V; first compound 1.5 µg/mL, partner 5 µg/mL): 0.0748

C[C@@H]1O[C@@H]1P(=O)(O)O [Fosfomycin] + CO[C@@]12[C@H](COC(N)=O)C3=C(C(=O)C(C)=C(N)C3=O)N1C[C@@H]1N[C@@H]12 [Mitomycin C]
fitness (S. aureus DSM 20231; [10]): 0.607
fitness (S. aureus DSM 20231; [11]): 0.57
fitness (S. aureus DSM 20231; [12]): 0.49
fitness (S. aureus DSM 20231; [13]): 0.494
fitness (S. aureus DSM 20231; [14]): 0.497
fitness (S. aureus DSM 20231; [15]): 0.35
fitness (S. aureus DSM 20231; [16]): 0.43
fitness (S. aureus DSM 20231; [17]): 0.318
fitness (S. aureus DSM 20231; [18]): 0.165
fitness (S. aureus Newman; [10]): 0.576
fitness (S. aureus Newman; [11]): 0.543
fitness (S. aureus Newman; [12]): 0.373
fitness (S. aureus Newman; [13]): 0.452
fitness (S. aureus Newman; [14]): 0.363
fitness (S. aureus Newman; [15]): 0.114
fitness (S. aureus Newman; [16]): 0.124
fitness (S. aureus Newman; [17]): 0.0839
fitness (S. aureus Newman; [18]): 0.0142
fitness (S. pneumoniae D39V; first compound 1.25 µg/mL, partner 0.001075 µg/mL): 0.903
fitness (S. pneumoniae D39V; first compound 1.25 µg/mL, partner 0.002 µg/mL): 0.858
fitness (S. pneumoniae D39V; first compound 1.25 µg/mL, partner 0.00215 µg/mL): 0.843
fitness (S. pneumoniae D39V; first compound 1.25 µg/mL, partner 0.004 µg/mL): 0.793
fitness (S. pneumoniae D39V; first compound 1.25 µg/mL, partner 0.0043 µg/mL): 0.748
fitness (S. pneumoniae D39V; first compound 1.25 µg/mL, partner 0.008 µg/mL): 0.65
fitness (S. pneumoniae D39V; first compound 2.5 µg/mL, partner 0.001075 µg/mL): 0.869
fitness (S. pneumoniae D39V; first compound 2.5 µg/mL, partner 0.002 µg/mL): 0.812
fitness (S. pneumoniae D39V; first compound 2.5 µg/mL, partner 0.00215 µg/mL): 0.837
fitness (S. pneumoniae D39V; first compound 2.5 µg/mL, partner 0.004 µg/mL): 0.77
fitness (S. pneumoniae D39V; first compound 2.5 µg/mL, partner 0.0043 µg/mL): 0.734
fitness (S. pneumoniae D39V; first compound 2.5 µg/mL, partner 0.008 µg/mL): 0.648
fitness (S. pneumoniae D39V; first compound 5 µg/mL, partner 0.001075 µg/mL): 0.772
fitness (S. pneumoniae D39V; first compound 5 µg/mL, partner 0.002 µg/mL): 0.694
fitness (S. pneumoniae D39V; first compound 5 µg/mL, partner 0.00215 µg/mL): 0.733
fitness (S. pneumoniae D39V; first compound 5 µg/mL, partner 0.004 µg/mL): 0.617
fitness (S. pneumoniae D39V; first compound 5 µg/mL, partner 0.0043 µg/mL): 0.652
fitness (S. pneumoniae D39V; first compound 5 µg/mL, partner 0.008 µg/mL): 0.574
